ChEMBL document CHEMBL1177848, “Synthesis of novel 6,6a,7,8-tetrahydro-5H-naphtho[1,2-e]pyrimido[4,5-b][1,4]diazepines under microwave irradiation as potential anti-tumor agents” (2010)
The source made the active and inactive calls.

How the values were obtained:
Type in all cases: functional, cell-based
[1] = tested on: NCI-H460; test: Growth inhibition of human NCI-H460 cells at 1 uM after 48 hrs by sulforhodamine B assay
[2] = tested on: SNB-75; test: Growth inhibition of human SNB75 cells at 1 uM after 48 hrs by sulforhodamine B assay
[3] = tested on: OVCAR-3; test: Growth inhibition of human OVCAR-3 cells at 1 uM after 48 hrs by sulforhodamine B assay
[4] = tested on: SK-MEL-2; test: Growth inhibition of human SK-MEL-2 cells at 1 uM after 48 hrs by sulforhodamine B assay
[5] = tested on: ACHN; test: Growth inhibition of human ACHN cells at 1 uM after 48 hrs by sulforhodamine B assay
[6] = tested on: 786-0; test: Growth inhibition of human 786-0 cells at 1 uM after 48 hrs by sulforhodamine B assay
[7] = tested on: SF-268; test: Growth inhibition of human SF268 cells at 1 uM after 48 hrs by sulforhodamine B assay
[8] = tested on: PC-3; test: Growth inhibition of human PC3 cells at 1 uM after 48 hrs by sulforhodamine B assay
[9] = tested on: T47D; test: Growth inhibition of human T47D cells at 1 uM after 48 hrs by sulforhodamine B assay
[10] = tested on: HCT-116; test: Growth inhibition of human HCT116 cells at 1 uM after 48 hrs by sulforhodamine B assay
[11] = tested on: Hs-578T; test: Growth inhibition of human Hs 578T cells at 1 uM after 48 hrs by sulforhodamine B assay
[12] = tested on: MDA-MB-468; test: Growth inhibition of human MDA-MB-468 cells at 1 uM after 48 hrs by sulforhodamine B assay
[13] = tested on: BT-549; test: Growth inhibition of human BT549 cells at 1 uM after 48 hrs by sulforhodamine B assay
[14] = tested on: SF-295; test: Growth inhibition of human SF295 cells at 1 uM after 48 hrs by sulforhodamine B assay
[15] = tested on: OVCAR-8; test: Growth inhibition of human OVCAR8 cells at 1 uM after 48 hrs by sulforhodamine B assay
[16] = tested on: MDA-MB-231; test: Growth inhibition of human MDA-MB-231 cells at 1 uM after 48 hrs by sulforhodamine B assay
[17] = tested on: A498; test: Growth inhibition of human A498 cells at 1 uM after 48 hrs by sulforhodamine B assay
[18] = tested on: HOP-92; test: Growth inhibition of human HOP92 cells at 1 uM after 48 hrs by sulforhodamine B assay
[19] = tested on: COLO 205; test: Growth inhibition of human COLO205 cells at 1 uM after 48 hrs by sulforhodamine B assay
[20] = tested on: CCRF-CEM; test: Growth inhibition of human CCRF-CEM cells at 1 uM after 48 hrs by sulforhodamine B assay
[21] = tested on: SW-620; test: Growth inhibition of human SW620 cells at 1 uM after 48 hrs by sulforhodamine B assay
[22] = tested on: M14; test: Growth inhibition of human M14 cells at 1 uM after 48 hrs by sulforhodamine B assay
[23] = tested on: HOP-62; test: Growth inhibition of human HOP62 cells at 1 uM after 48 hrs by sulforhodamine B assay
[24] = tested on: NCI/ADR-RES; test: Growth inhibition of human NCI/ADR-RES cells at 1 uM after 48 hrs by sulforhodamine B assay
[25] = tested on: LOX IMVI; test: Growth inhibition of human LOXIMVI cells at 1 uM after 48 hrs by sulforhodamine B assay
[26] = tested on: K562; test: Growth inhibition of human K562 cells at 1 uM after 48 hrs by sulforhodamine B assay
[27] = tested on: HCT-15; test: Growth inhibition of human HCT15 cells at 1 uM after 48 hrs by sulforhodamine B assay
[28] = tested on: SF-539; test: Growth inhibition of human SF539 cells at 1 uM after 48 hrs by sulforhodamine B assay
[29] = tested on: HCC 2998; test: Growth inhibition of human HCC2998 cells at 1 uM after 48 hrs by sulforhodamine B assay
[30] = tested on: OVCAR-4; test: Growth inhibition of human OVCAR4 cells at 1 uM after 48 hrs by sulforhodamine B assay
[31] = tested on: NCI-H23; test: Growth inhibition of human NCI-H23 cells at 1 uM after 48 hrs by sulforhodamine B assay
[32] = tested on: EKVX; test: Growth inhibition of human EKVX cells at 1 uM after 48 hrs by sulforhodamine B assay
[33] = tested on: NCI-H226; test: Growth inhibition of human NCI-H226 cells at 1 uM after 48 hrs by sulforhodamine B assay
[34] = tested on: IGROV-1; test: Growth inhibition of human IGROV1 cells at 1 uM after 48 hrs by sulforhodamine B assay
[35] = tested on: KM12; test: Growth inhibition of human KM12 cells at 1 uM after 48 hrs by sulforhodamine B assay
[36] = tested on: MCF7; test: Growth inhibition of human MCF7 cells at 1 uM after 48 hrs by sulforhodamine B assay
[37] = tested on: SN12C; test: Growth inhibition of human SN12C cells at 1 uM after 48 hrs by sulforhodamine B assay
[38] = tested on: MOLT-4; test: Growth inhibition of human MOLT4 cells at 1 uM after 48 hrs by sulforhodamine B assay
[39] = tested on: A549; test: Growth inhibition of human A549 cells at 1 uM after 48 hrs by sulforhodamine B assay
[40] = tested on: UO-31; test: Growth inhibition of human UO31 cells at 1 uM after 48 hrs by sulforhodamine B assay
[41] = tested on: UACC-257; test: Growth inhibition of human UACC257 cells at 1 uM after 48 hrs by sulforhodamine B assay
[42] = tested on: HL-60; test: Growth inhibition of human HL-60(TB) cells at 1 uM after 48 hrs by sulforhodamine B assay
[43] = tested on: DU-145; test: Growth inhibition of human DU145 cells at 1 uM after 48 hrs by sulforhodamine B assay
[44] = tested on: NCI-H522; test: Growth inhibition of human NCI-H522 cells at 1 uM after 48 hrs by sulforhodamine B assay
[45] = tested on: Malme-3M; test: Growth inhibition of human MALME-3M cells at 1 uM after 48 hrs by sulforhodamine B assay
[46] = tested on: NCI-H322M; test: Growth inhibition of human […] cells at 1 uM after 48 hrs by sulforhodamine B assay
[47] = tested on: SK-MEL-28; test: Growth inhibition of human SK-MEL-28 cells at 1 uM after 48 hrs by sulforhodamine B assay
[48] = tested on: CAKI-1; test: Growth inhibition of human Caki1 cells at 1 uM after 48 hrs by sulforhodamine B assay
[49] = tested on: UACC-62; test: Growth inhibition of human UACC62 cells at 1 uM after 48 hrs by sulforhodamine B assay
[50] = tested on: SK-MEL-5; test: Growth inhibition of human SK-MEL-5 cells at 1 uM after 48 hrs by sulforhodamine B assay
[51] = tested on: SF530; test: Growth inhibition of human SF530 cells at 1 uM after 48 hrs by sulforhodamine B assay
[52] = tested on: HT-29; test: Growth inhibition of human HT-29 cells at 1 uM after 48 hrs by sulforhodamine B assay
[53] = tested on: RXF 393; test: Growth inhibition of human RXF393 cells at 1 uM after 48 hrs by sulforhodamine B assay
[54] = tested on: MDA-MB-435; test: Growth inhibition of human MDA-MB-435 cells at 1 uM after 48 hrs by sulforhodamine B assay
[55] = tested on: SR; test: Growth inhibition of human SR cells at 1 uM after 48 hrs by sulforhodamine B assay
[56] = tested on: TK-10; test: Growth inhibition of human TK10 cells at 1 uM after 48 hrs by sulforhodamine B assay
[57] = tested on: RPMI-8226; test: Growth inhibition of human RPMI8226 cells at 1 uM after 48 hrs by sulforhodamine B assay
[58] = tested on: U-251; test: Growth inhibition of human U251 cells at 1 uM after 48 hrs by sulforhodamine B assay

Measured: growth inhibition (GI)

Nc1ncnc2c1N=C1c3ccccc3CCC1C(c1ccc(Cl)cc1)N2 (stereo not drawn)
active: [1] | [2] | [3] | [4] | [5] | [6] | [7] | [8] | [9] | [10] | [11] | [12] | [13] | [14] | [15] | [16] | [17] | [18] | [19] | [20] | [21] | [22] | [23] | [24] | [25] | [26] | [27] | [28] | [29] | [30] | [31] | [32] | [33] | [34] | [35] | [36] | [37] | [38] | [39] | [40] | [41] | [42] | [43] | [44] | [45] | [46] | [47] | [48] | [49] | [50] | [51] | [52] | [53] | [54] | [55] | [56] | [57] | [58]
